Several values for one entry are separate records, joined by “and”; a condition that tells them apart may be missing. Equal entries are not always repeated.
Columns and labels:
[1] = test system: Cysteinyl leukotriene receptor (Cavia porcellus); experiment: In vitro inhibition of leukotriene D4 induced contractions of isolated guinea pig ileum.
[2] = biological target: T1, Cysteinyl leukotriene receptor 1 (Cavia porcellus) (UniProt Q2NNR5); experiment: Antagonistic activity in vitro against leukotriene-D4 (LTD4) induced guinea pig ileum contraction; type: functional, tissue-based
T1 sequence (whole entry): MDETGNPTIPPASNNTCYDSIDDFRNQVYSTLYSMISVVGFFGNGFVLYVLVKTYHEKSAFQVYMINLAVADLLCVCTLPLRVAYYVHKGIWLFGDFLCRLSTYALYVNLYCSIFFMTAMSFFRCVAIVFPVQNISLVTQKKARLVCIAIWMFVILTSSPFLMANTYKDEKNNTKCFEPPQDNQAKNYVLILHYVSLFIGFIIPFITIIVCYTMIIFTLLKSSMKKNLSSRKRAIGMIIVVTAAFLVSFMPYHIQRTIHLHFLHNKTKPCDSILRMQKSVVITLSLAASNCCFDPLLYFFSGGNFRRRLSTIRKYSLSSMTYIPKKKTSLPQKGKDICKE

SMILES | pKB [1] | pKB [2]
O=C(O)c1ccccc1Cn1nnc(-c2cccc(OCc3ccc4ccc(Cl)cc4n3)c2)n1 | 8.7 | –
O=C(O)c1ccccc1Cn1nnc(-c2cccc(OCc3nc4ccccc4s3)c2)n1 | 8.3 | –
O=C(O)c1ccccc1Cn1nnc(-c2cccc(CSc3ccc4ccccc4n3)c2)n1 | 7 | –
O=C(O)Cc1ccccc1Cn1nnc(-c2cccc(/C=C/c3ccc4ccccc4n3)c2)n1 | 7.7 | –
O=C(O)c1ccccc1Cn1nnc(-c2cccc(OCc3ccc4ccccc4n3)c2)n1 | 8.3 and 8.4 | –
O=C(O)c1ccccc1Cn1nnnc1-c1cccc(OCc2ccc3ccccc3n2)c1 | 6.5 | –
COc1cc(C(=O)O)ccc1Cn1nnnc1-c1cccc(/C=C/c2ccc3ccccc3n2)c1 | 8.2 | –
COc1cccc(C(=O)O)c1Cn1nnc(-c2cccc(OCc3ccc4ccccc4n3)c2)n1 | 8.4 | –
O=C(O)Cc1ccccc1Cn1nnc(-c2cccc(OCc3ccc4ccccc4n3)c2)n1 | 7.6 | –
c1cc(OCc2ccc3ccccc3n2)cc(-c2nnn(Cc3ccccc3-c3nn[nH]n3)n2)c1 | – | 9.1
O=C(O)c1cccc(Cn2nnc(-c3cccc(/C=C/c4ccc5ccccc5n4)c3)n2)c1 | 7.1 | –

Further lines, results first:

pKB [1] | pKB [2] | SMILES
7.8 | – | O=C(O)c1sccc1Cn1nnc(-c2cccc(/C=C/c3ccc4ccc(Cl)cc4n3)c2)n1
7.9 | – | O=C(O)c1ccccc1CCn1nnc(-c2cccc(/C=C/c3ccc4ccc(Cl)cc4n3)c2)n1
7.4 | – | COc1cc(C(=O)O)ccc1Cn1nnc(-c2cccc(/C=C/c3ccc4ccccc4n3)c2)n1
9.1 | – | O=C(O)c1cc(F)ccc1Cn1nnc(-c2cccc(/C=C/c3ccc4ccc(Cl)cc4n3)c2)n1
8.8 | – | O=C(O)c1ccccc1Cn1nnc(-c2cccc(/C=C/c3ccc4ccc(Cl)cc4n3)c2)n1
7.9 | – | O=C(O)c1ccoc1Cn1nnc(-c2cccc(/C=C/c3ccc4ccccc4n3)c2)n1
8.5 | – | O=C(O)c1ccccc1Cn1nnc(-c2cccc(/C=C/c3ccc4ccccc4n3)c2)n1

— ChEMBL document CHEMBL1126269, “Optimization of the quinoline and substituted benzyl moieties of a series of phenyltetrazole leukotriene D4 receptor antagonists” (J Med Chem, 1992)
